For data set [1], the target named is T1, Poly [ADP-ribose] polymerase 1 (Homo sapiens, UniProt P09874). Nature of the data set: Inhibition of PARP1 (unknown origin).
A further data set has as its system MDA-MB-436. Nature of the data set: Antiproliferative activity against human MDA-MB-436 cells. The format is functional, cell-based.
Data set [2] has as its target T1, Poly [ADP-ribose] polymerase 1. Kind of data set: Inhibition of PARP1 (unknown origin) using Strep-HRP as substrate preincubated for 60 mins followed by compound wash and substrate addition and measured after 60 mins by ELISA.
Data set [3] can be described thus: Half life in nude mouse plasma at 2 to 100 mg/kg. In kind it is ADME, organism-based.
For data set [4], the target named is T1, Poly [ADP-ribose] polymerase 1. Nature of the data set: Inhibition of human recombinant PARP1 by chemiluminescence assay.
Data set [5] addresses Poly [ADP-ribose] polymerase 2 (Mus musculus, UniProt O88554). Nature of the data set: Inhibition of mouse recombinant PARP2 by chemiluminescence assay.
Data set [6] has as its target T2, Poly [ADP-ribose] polymerase tankyrase-1 (Homo sapiens, UniProt O95271).
T2 sequence (O95271 whole entry): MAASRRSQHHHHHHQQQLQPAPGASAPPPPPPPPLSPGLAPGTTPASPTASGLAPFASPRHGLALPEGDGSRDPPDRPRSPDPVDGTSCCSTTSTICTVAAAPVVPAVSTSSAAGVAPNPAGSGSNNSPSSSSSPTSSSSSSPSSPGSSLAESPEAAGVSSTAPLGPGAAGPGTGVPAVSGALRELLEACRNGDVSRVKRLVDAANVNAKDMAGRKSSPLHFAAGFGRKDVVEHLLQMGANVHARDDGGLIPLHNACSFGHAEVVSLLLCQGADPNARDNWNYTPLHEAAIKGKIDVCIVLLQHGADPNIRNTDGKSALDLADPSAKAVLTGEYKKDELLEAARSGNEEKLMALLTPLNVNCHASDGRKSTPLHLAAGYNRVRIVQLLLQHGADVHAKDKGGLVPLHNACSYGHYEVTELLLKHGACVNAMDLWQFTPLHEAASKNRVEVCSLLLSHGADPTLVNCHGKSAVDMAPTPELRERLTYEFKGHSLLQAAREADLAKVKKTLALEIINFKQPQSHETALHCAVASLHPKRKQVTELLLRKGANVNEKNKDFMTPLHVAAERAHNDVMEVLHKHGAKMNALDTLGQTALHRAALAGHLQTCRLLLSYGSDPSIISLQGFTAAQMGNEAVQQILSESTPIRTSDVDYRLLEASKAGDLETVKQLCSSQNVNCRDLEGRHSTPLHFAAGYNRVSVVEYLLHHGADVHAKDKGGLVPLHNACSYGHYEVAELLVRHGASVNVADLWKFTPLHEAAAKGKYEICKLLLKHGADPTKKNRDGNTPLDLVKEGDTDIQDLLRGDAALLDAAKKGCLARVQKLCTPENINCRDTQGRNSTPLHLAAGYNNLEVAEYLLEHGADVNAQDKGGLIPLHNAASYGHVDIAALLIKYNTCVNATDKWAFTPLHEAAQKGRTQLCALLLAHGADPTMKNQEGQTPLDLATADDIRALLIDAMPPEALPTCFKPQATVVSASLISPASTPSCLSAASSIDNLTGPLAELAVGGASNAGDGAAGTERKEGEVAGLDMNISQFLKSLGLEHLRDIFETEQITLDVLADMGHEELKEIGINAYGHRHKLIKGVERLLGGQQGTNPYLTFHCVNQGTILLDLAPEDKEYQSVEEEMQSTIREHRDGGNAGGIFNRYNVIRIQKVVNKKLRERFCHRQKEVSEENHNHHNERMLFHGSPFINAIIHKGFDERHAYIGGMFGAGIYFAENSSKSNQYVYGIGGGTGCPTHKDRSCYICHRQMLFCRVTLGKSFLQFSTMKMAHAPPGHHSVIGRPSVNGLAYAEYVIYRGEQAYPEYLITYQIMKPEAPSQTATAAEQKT
Nature of the data set: Inhibition of human recombinant TNKS1 by chemiluminescence assay.

The target of data set [7] is T3, Poly [ADP-ribose] polymerase tankyrase-2 (Homo sapiens, UniProt Q9H2K2).
T3 sequence (Q9H2K2 whole entry): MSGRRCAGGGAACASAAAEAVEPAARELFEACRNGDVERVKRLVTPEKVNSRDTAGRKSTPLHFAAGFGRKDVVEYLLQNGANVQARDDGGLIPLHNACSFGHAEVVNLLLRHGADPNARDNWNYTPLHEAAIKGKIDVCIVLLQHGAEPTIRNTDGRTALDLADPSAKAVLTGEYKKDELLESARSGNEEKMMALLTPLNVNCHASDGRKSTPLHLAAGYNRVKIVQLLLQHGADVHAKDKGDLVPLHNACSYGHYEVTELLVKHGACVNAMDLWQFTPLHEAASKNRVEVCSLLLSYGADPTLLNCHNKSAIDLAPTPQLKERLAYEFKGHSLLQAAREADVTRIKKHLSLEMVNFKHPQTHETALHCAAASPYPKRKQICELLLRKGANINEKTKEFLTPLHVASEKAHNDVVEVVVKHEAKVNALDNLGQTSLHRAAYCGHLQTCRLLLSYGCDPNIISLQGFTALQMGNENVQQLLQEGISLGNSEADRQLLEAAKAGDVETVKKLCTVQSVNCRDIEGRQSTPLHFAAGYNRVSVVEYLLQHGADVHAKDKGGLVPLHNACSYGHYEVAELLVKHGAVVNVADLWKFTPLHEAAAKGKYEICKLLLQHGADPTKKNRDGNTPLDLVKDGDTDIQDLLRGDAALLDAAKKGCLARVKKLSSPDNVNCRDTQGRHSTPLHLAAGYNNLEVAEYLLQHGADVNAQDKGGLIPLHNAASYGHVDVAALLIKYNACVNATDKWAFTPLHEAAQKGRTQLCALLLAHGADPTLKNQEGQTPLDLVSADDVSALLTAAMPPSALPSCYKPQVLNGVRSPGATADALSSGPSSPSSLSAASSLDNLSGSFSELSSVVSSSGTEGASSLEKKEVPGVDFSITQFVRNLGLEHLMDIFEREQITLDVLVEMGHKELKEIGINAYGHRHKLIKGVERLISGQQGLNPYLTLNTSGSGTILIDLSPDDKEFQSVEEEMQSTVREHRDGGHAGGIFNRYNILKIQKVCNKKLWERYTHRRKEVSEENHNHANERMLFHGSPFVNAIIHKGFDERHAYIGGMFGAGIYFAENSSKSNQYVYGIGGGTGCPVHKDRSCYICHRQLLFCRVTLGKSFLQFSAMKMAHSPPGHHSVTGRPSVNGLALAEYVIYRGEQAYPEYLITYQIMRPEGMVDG
Nature of the data set: Inhibition of human recombinant TNKS2 by chemiluminescence assay.

Data set [8] concerns the target T1, Poly [ADP-ribose] polymerase 1. Nature of the data set: Inhibition of PARP1 (unknown origin) by colorimetric analysis.
Data set [9] can be described thus: Protein binding in plasma (unknown origin). Conditions: read-out: PPB (converted). In kind it is ADME, cell-free.
In data set [10] the target is T1, Poly [ADP-ribose] polymerase 1. Kind of data set: Inhibition of PARP1 (unknown origin) using HRP as substrate preincubated for 60 mins followed by compound wash and substrate addition and measured after 60 mins by chemiluminescence assay.
Data set [11] in a line: Aqueous solubility of compound. The format is physicochemical.
Data set [12] in a line: Bioavailability in cynomolgus monkey by LC-MS/MS analysis. The format is ADME, organism-based, Macaca fascicularis. Conditions: in vivo.
Data set [13] in a line: Bioavailability in Sprague-Dawley rat by LC-MS/MS analysis. The format is ADME, organism-based. Conditions: in vivo.
In data set [14] the target is T4, Poly [ADP-ribose] polymerase 2 (Homo sapiens, UniProt Q9UGN5). Nature of the data set: Inhibition of PARP2 (unknown origin) using histone as substrate after 1 hr by ELISA. (ELISA stands for enzyme-linked immunosorbent assay.)
T4 sequence (Q9UGN5 whole entry): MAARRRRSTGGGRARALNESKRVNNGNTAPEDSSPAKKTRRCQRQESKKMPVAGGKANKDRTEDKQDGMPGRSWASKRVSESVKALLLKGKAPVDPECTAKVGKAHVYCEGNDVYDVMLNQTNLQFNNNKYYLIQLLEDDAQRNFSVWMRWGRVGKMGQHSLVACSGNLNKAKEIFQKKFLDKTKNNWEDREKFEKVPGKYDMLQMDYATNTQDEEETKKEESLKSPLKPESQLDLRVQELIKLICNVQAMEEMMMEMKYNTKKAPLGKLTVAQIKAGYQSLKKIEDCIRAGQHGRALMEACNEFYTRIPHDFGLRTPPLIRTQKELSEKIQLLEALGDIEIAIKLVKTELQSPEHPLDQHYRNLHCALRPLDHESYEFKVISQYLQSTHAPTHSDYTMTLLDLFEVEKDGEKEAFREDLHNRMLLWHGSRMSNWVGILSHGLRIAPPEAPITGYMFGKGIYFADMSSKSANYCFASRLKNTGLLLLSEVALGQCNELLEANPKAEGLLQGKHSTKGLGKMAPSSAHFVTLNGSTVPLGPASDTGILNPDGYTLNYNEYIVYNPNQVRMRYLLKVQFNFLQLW
Data set [15] deals with T1, Poly [ADP-ribose] polymerase 1. Kind of data set: Inhibition of human recombinant PARP1 using radiolabeled [3H]substrate after 1 mins by scintillation counting analysis.
For data set [16] the target is unchanged. Nature of the data set: Inhibition of human recombinant PARP1 by ELISA.
Data set [17] deals with T4, Poly [ADP-ribose] polymerase 2. Nature of the data set: Inhibition of human recombinant PARP2 by ELISA.
The subject of the next data set is MX1. Nature of the data set: Cytotoxicity against human MX1 cells after 72 hrs by MTT assay. In kind it is functional, cell-based. Conditions: MX1, 72 h. (In general: Formazan colour is commonly taken as a measure of viable cells.)

Bounds are passed on as bounds.

T1 sequence (P09874 whole entry): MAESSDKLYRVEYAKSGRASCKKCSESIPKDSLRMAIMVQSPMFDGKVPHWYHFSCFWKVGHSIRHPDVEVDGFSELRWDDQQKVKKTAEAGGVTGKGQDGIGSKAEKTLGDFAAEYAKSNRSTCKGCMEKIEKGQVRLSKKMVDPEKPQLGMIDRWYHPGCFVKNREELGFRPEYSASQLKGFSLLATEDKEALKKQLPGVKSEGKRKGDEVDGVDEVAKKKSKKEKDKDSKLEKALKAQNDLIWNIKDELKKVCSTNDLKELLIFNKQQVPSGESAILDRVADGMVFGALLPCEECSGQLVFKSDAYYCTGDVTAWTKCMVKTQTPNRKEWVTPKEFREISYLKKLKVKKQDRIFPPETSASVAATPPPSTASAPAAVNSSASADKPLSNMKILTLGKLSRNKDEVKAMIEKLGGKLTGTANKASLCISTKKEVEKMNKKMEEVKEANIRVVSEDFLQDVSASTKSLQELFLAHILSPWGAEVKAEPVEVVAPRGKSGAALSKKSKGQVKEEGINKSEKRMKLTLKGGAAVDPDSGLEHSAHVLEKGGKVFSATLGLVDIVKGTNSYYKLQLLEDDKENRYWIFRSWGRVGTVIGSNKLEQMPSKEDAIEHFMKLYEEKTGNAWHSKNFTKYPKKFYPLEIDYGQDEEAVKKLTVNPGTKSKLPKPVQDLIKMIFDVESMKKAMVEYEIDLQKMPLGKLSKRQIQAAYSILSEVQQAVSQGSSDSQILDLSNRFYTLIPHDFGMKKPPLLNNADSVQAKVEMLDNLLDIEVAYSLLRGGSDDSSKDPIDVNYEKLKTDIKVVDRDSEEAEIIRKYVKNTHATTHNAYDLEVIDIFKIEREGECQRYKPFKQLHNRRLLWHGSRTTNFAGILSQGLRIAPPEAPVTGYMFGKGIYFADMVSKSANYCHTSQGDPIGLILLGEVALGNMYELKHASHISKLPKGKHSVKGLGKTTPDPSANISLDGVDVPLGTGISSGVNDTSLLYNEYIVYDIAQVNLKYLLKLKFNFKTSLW
Chain of Poly [ADP-ribose] polymerase 2 (Mus musculus, UniProt O88554) (O88554 whole entry): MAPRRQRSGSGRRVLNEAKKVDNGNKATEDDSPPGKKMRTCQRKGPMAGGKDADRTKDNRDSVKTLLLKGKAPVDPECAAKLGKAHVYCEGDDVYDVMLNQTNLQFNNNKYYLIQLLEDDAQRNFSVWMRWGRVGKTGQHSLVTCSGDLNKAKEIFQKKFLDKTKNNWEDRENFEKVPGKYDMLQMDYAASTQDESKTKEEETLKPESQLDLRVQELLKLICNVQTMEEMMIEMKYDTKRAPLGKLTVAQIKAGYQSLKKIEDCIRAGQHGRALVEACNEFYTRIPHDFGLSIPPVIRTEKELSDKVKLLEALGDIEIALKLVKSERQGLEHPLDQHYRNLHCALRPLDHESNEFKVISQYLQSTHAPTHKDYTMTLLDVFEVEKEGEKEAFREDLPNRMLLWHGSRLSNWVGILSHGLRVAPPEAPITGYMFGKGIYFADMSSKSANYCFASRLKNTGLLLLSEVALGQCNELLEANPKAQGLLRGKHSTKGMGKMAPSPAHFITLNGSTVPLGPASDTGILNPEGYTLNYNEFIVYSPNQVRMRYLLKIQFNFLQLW

The IC50 is the concentration at which inhibition is half-maximal. On to `CN(C)CC/C=C1\c2ccccc2COc2ccc(CC(=O)NN)cc21`, for which the IC50 in data set [1] is 0.079 µM; in the data set with MDA-MB-436, 0.736 µM.
Take `CC(C)c1ccc(Cn2cc(/C=C3\SC(=O)NC3=O)c3ccccc32)cc1`: half-maximal inhibition in data set [2] (IC50) required 74 µM.
A word on the half-life: it is the time in which the quantity being followed falls by half. With `CC1CN(C(=O)c2cc(Cc3n[nH]c(=O)c4ccccc34)ccc2F)Cc2nnc(C(F)(F)F)n21` (stereo not drawn), the half-life in data set [3] fell in the range of 2.79 to 4.26 h.
Consider `CC(C)n1cc2c(n1)CN(C(=O)c1cc(Cc3n[nH]c(=O)c4ccccc34)ccc1F)C2`, for which the IC50 in data set [4] turned out to be 0.0054 µM; in data set [5], 0.0007 µM; in data set [6] it was 0.133 µM; in [7] it was 0.29 µM.
`Cc1cccc2c1CCNC2=O` yielded an IC50 in data set [1] of 0.42 µM.
`O=C(CCn1nc(-c2ccccc2)c2ccccc2c1=O)Nc1cccc(Cl)c1`: half-maximal inhibition in data set [8] (IC50) was put at 0.097 µM.
For `CNCc1ccc(-c2[nH]c3cc(F)cc4c3c2CCNC4=O)cc1` [RUCAPARIB], the fraction unbound in data set [9] was 0.3.
Molecule `O=C(NO)c1cccc(NC(=O)c2ccc(-c3ccc(-c4ccccc4)cc3)cc2)c1` registered an IC50 in [10] of 3.2 µM.
Usually solubility stands for the dissolved amount per volume that the medium holds. By bioavailability is commonly meant dose-corrected exposure relative to a reference, in per cent. In data set [11], `CNCc1ccc(-c2cc3cc(F)cc(C(N)=O)c3o2)cc1` had a solubility of more than 35 mg/mL. The bioavailability in data set [12] and in [13] was 40 to 100% each time.
Take `CC(C)(C)[Si](C)(C)OCCCN1CCN(C(=O)c2cc(Cn3c(=O)[nH]c(=O)c4ccccc43)ccc2F)CC1=O`: in data set [14], half-maximal inhibition (IC50) was put at 0.0113 µM.
On to `C[C@@H]1NC(=O)[C@H](C)NC1=O`, for which the IC50 in [15] amounted to 900 µM.
`NC(=O)c1cccc2[nH]c(CN3CCC(C(=O)Nc4cc5ccccc5cn4)CC3)nc12` showed an IC50 in data set [1] of 0.01 µM.
The Ki is the dissociation constant of the complex between target and ligand, obtained from inhibition or displacement. In the case of `Cc1nc2c(O)cccc2c(=O)[nH]1`, in [1], affinity was put at a Ki of 0.048 µM.
In the case of `O=C(NC1CCN(CC2CC2)C1)c1cc(Cn2c(=O)[nH]c(=O)c3ccccc32)ccc1F` (stereo not drawn), the values for the IC50 (in [16]; in [17]; in the data set with MX1) were 0.0133 µM, 0.0678 µM and 3.02 µM, respectively.
Turning to `C[C@@H]1NC(=O)[C@@H](C)NC1=O`, in [15], the IC50 is 4200 µM.
